system: rat; experiment: not given; settings: in vivo, po

| SMILES | A.O. Rat. LD50 [mg/kg] |
| --- | --- |
| CNC(=O)ON=C(C)SC [Compound 1] | 49 |
| CNC(=O)ON=C(C)SC(C)C [Compound 3] | 8 |

system: not listed separately; experiment: in vivo; settings: rat, po

| SMILES | LD50 [mg/kg] |
| --- | --- |
| CSC(C)=NOC(=O)N(C)SC(C)(C)C#N [X, 1-Methylthioacetaldehyde O-[N-methyl-N-(2-cyano-2-propanesulfenyl)carbamoyl]oxime] | 127 |
| CN(SC(C)(C)CCl)C(=O)ON=C1SC(C)(C)C(=O)N1C [XIII, 3,5,5-Trimethyl-2-[[O--[N--methyl-N--(2-chloromethyl-2-propanesulfenyl)carbamoyl]oximino]]-4-thiazolidinone] | 343 |
| CN(SC(C)(C#N)CCl)C(=O)ON=C1SC(C)(C)C(=O)N1C (centres unmarked) [XIX, 3,5,5-Trimethyl-2-[[O--[N--methyl-N--(1-chloro-2-cyano-2-propanesulfenyl)carbamoyl]oximino]]-4-thiazolidinone] | 320 |
| CC(=NOC(=O)N(C)SC(C)(C)C#N)SC(C)C [XXIII, 1-Isopropylthioacetaldehyde O--[N--methyl-N--(2-cyano-2-propanesulfenyl)carbamoyl]oxime] | 20 |
| CC(=NOC(=O)N(C)SC(C)(C)C#N)SCCC#N [XXIV, 1-(2-Cyanoethylthio)acetaldehyde O--[N--methyl-N--(2-cyano-2-propanesulfenyl)carbamoyl]oxime] | 14.1 |
| CC(=NOC(=O)N(C)SSC(C)(C)C#N)SC(C)C [XXIX, 1-Isopropylthioacetaldehyde O--[N-- methyl-N--(2-cyano-2-propanethiosulfenyl)carbamoyl]oxime] | 18 |
| CN(SC(C)(C)C#N)C(=O)ON=C1CSCCS1 [XXVI, 2-[[O--[N--methyl-N--(2-cyano-2-propanesulfenyl)carbamoyl]oximino]]-1,4-dithiane] | 40 |
| CC(=NOC(=O)N(C)SSC(C)(C)C#N)SCCC#N [XXVIII, 1-(2-Cyanoethylthio)acetaldehyde O--[N--methyl-N--(2-cyano-2-propanethiosulfenyl)carbamoyl]oxime] | 28 |
| CSC(C)=NOC(=O)N(C)SSC(C)(C)C#N [XXVII] | 127 |
| CN(SSC(C)(C)C#N)C(=O)ON=CC(C)(C)C#N [XXXII, 2-Cyano-2-methylpropionaldehyde O--[N--methyl-N--(2-cyano-2-propanethiosulfenyl)carbamoyl]oxime] | 14 |
| CC1OCSC1=NOC(=O)N(C)SSC(C)(C)C#N (centres unmarked) [XXXIV, 5-Methyl-4-[[O--[N--methyl-N--(2-cyano-2-propanethiosulfenyl)carbamoyl]oximino]]-1,3-oxathiolane] | 14 |
| CN(SSC(C)(C)C#N)C(=O)ON=C1CSCCS1 [XXXV, 2-[[O--[N--methyl-N--(2-cyano-2-propanethiosulfenyl)carbamoyl]oximino]]-1,4-dithiane] | 32 |

— patent US4485113A (priority 1979, dated 1984)
